Source: US20230094176A1, “COMPOUNDS AND METHODS FOR IMPROVING IMPAIRED ENDOGENOUS FIBRINOLYSIS USING HISTONE DEACETYLASE INHIBITORS” (Cereno Scientific AB, priority 2011, published 2023)
Read-outs that look alike come from different tables or passages of the source.

How the values were obtained:
[1] = tested on: TNF-a suppressed t-PA mRNA in HUVECs; assay: TNF-alpha suppression of t-PA mRNA in HUVEC: anti-inflammatory substances versus Givinostat; assay type: cell-based, human; conditions: HUVEC, TNF-a 1 h then substance; ASA 1 mM, IBU 1 mM
Experimental: HUVECs were treated with TNF-alpha (TNF-a) for 1 h and then optimal concentrations of the anti.inflammatory substances acetylsalicylic acid (ASA, 1 mM) and ibuprofen (IBU, 1 mM) was added. Givinostat was also added to the cells for comparison. Cells were harvested and t-PA mRNA levels analysed according to example 1.

t-PA mRNA in HUVECs = assay: C100: dose giving a 100% increase of t-PA mRNA in HUVEC (24 h); assay type: cell-based, human
Experimental: HUVECs are treated with different concentrations of first generation hydroxamates (TSA), second generation hydroxamates (Givinostat, Vorinostat, Belinostat, Panobinostat, SB939, PCI24781), benzamides (Mocetinostat, Entinostat) or short chain fatty acids (SCFA, Butyrate, Phenylbutyrate) for 24 h and t-PA mRNA was measured. The doses giving a 100% increase of t-PA mRNA (C100) was determined and compared to the maximum plasma concentration (Cmax) achieved when the maximum tolerated dose (MTD) of each substance is administered to humans, by dividing the C100 with the Cmax. […] In the table below the values for MTD and Cmax are from the following references (mentioned in the same order as in the table): Steele, N. L. et al Cancer Chemother Pharmacol 67(6):1273-9 (2011), Kelly, K. K. et al J Clin Oncol 23:3923-3931 (2005), Furlan, A. et al Mol Med 17(5-6) 353-362 (2011), Fukutomi, A. et al Invest New Drugs 2011 Apr. 12, Yong, W. P. et al Ann Oncol 22(11) 2516-22 (2011), Garcia-Manero, G. et al. Blood 112: 981-989 (2008), Ryan, Q. C. et al J Clin Oncol 23(17): 3912-3922 (2005), Edelman, M. J. et al Cancer Chemother Pharmacol 51: 439-444, http://www.drugs.com/pro/buphenyl.html *Butyrate was administered in the prodrug form tributyrin.

[2] = cited from earlier work; for Cmax / Cmax (ng/ml): maximum plasma concentration when the MTD is administered to humans
[3] = tested on: t-PA mRNA expression in human umbilical vein endothelial cells (HUVECs); assay: In vitro dose response: t-PA mRNA (and protein) expression in HUVEC after 24 h; assay type: cell-based
Experimental: Human umbilical vein endothelial cells (HUVECs) were prepared by collagenase treatment of fresh umbilical cords (Jaffe, E. A., et al. J Clin Invest 52, 2745-2756 (1973)) obtained from the maternity ward of the Sahlgrenska University hospital, Gotheburg, Sweden. Cells were cultured in EGM-2 medium (Lonza, Basel, Switzerland) and all experiments were performed in passage 1 of subcultivation. Confluent HUVECs were exposed to 10 nM-10 μM of Vorinostat (Selleck Chemicals, Houston, Tex., USA) in complete medium for 24 h. After 24 h, cells and conditioned media were harvested.
Total RNA was prepared using RNeasy Mini RNA kit (Qiagen, Hilden, Germany) and genomic DNA was removed using RNase-free DNase I set (Qiagen). Levels of t-PA mRNA were analyzed with real-time RT-PCR, performed on an Applied Biosystems 7500 Fast Real-Time PCR System using cDNA and Taqman reagents obtained from Applied Biosystems (Foster City, Calif., USA). Hypoxanthine phosphoribosyl transferase (HPRT, Assay number Hs99999909_m1, Applied Biosystems) was used as endogenous internal standard.
Endothelial cells in culture are known to constitutively secrete the majority of synthesized t-PA making conditioned media a suitable source for quantification of t-PA protein. Conditioned medium from cell cultures was collected, centrifuged (10 000×g, 10 min, 4° C.) to remove cell debris, transferred to fresh tubes and stored at −70° C. Concentrations of t-PA antigen in conditioned media were determined using the commercially available TriniLize t-PA antigen ELISA (Trinity Biotech, Bray, Ireland) according to manufacturer's protocol.

[4] = tested on: t-PA production in endothelial cells; conditions: Arts et al 1995; cited from earlier work

Compound: CC(=O)Oc1ccccc1C(=O)O [ASA, acetylsalicylic acid]
- effect on TNF-a mediated suppression of t-PA expression [1]: not counteracted

Compound: CCCC(=O)O [Butyrate]
- C100 tPA (μM) (t-PA mRNA in HUVECs): 100 µM
- MTD ([2]; humans, literature, butyrate administered in the prodrug form tributyrin): 200 mg/kg t.i.d
- Cmax ([2]; butyrate as prodrug tributyrin): 100 µM

Compound: Nc1ccccc1NC(=O)c1ccc(CNC(=O)OCc2cccnc2)cc1 [Entinostat]
- C100 tPA (t-PA mRNA in HUVECs): 0.3 µM
- Cmax [2]: 0.12 µM
- Cmax (ng/ml) [2]: 45 ng/mL

Compound: CC(C)Cc1ccc(C(C)C(=O)O)cc1 (centres unmarked) [IBU, ibuprofen]
- effect on TNF-a mediated suppression of t-PA expression [1]: not counteracted

Compound: CCCCc1nc2cc(/C=C/C(=O)NO)ccc2n1CCN(CC)CC [SB939, (2E)-3-{2-butyl-1-[2-(diethylamino)ethyl]-1H-benzimidazol-5-yl}-N-hydroxyacrylamide]
- concentration at which a significant increase of t-PA mRNA levels was seen [3]: 30 nM
- concentration of maximal effect on t-PA expression [3]: around 1 μM
- increase of t-PA expression at maximal effect [3]: approximately 10 times
- C100 tPA (t-PA mRNA in HUVECs): 0.05 µM
- MTD ([2]; humans, literature): 80 mg
- Cmax [2]: 1.1 µM
- Cmax (ng/ml) [2]: ~400 ng/mL
- MTD ([2]; once daily, oncology treatment or trials): 60 mg once daily

Compound: CC(/C=C/C(=O)NO)=C\[C@@H](C)C(=O)c1ccc(N(C)C)cc1 [Trichostatin A, trichostatin A]
- t-PA production in endothelial cells [4]: increased

Compound: CC(=O)Oc1ccccc1C(=O)O [aspirin]
- effect on TNF-a mediated suppression of t-PA expression [1]: unable to reverse

Compound: CC(C)Cc1ccc(C(C)C(=O)O)cc1 (centres unmarked) [ibuprofen]
- effect on TNF-a mediated suppression of t-PA expression [1]: unable to reverse

Compound: Phenylbutyrate
- C100 tPA (μM) (t-PA mRNA in HUVECs): 1300 µM
- MTD ([2]; humans, literature): 5000 mg
- Cmax ([2]; butyrate as prodrug tributyrin): 1100 µM
- Cmax (ng/ml) [2]: 218 000 ng/ml
